Measured values from US11352350B2, “IRAK degraders and uses thereof” (Kymera Therapeutics, Inc., priority 2018, dated 2022).
Like-named read-outs stand apart in the source and are kept apart here.

Key:
[1] = molecular target: IRAK4 (Homo sapiens (Human), UniProt Q9NWZ3); assay: IRAK4 MSD degradation in OCI-LY10; format: cell-based
Outline: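 Remaining IRAK4 quantified by electrochemiluminescent MSD sandwich assay with two anti-IRAK4 antibodies. Compounds were dosed as 8 concentrations in 1:3 steps from a 1 to 10 μM final top on OCI-LY10 cells, incubated 4 to 24 h at 37° C. under 5% CO2. DC50 fitted with a three-parameter logistic curve.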

[2] = test system: OCI-LY10; assay: CTG Cell Viability Assay - OCI-LY10; format: cell-based, human; details: OCI-LY10, 4 days, read-out: CTG Cell Viability Assay - OCI-LY10: Average external-IC50
Outline: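 Viability read by CellTiter-Glo luminescence after 4 days at 37° C under 5% CO2 with compound (top 10 μM final, 1:3 steps, 9 doses, DMSO 0.2%). Three-parameter logistic fit gave IC50.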

[3] = OCI-LY10, 4 hrs, read-out: IRAK4 MSD degradation in OCI-LY10 at 4 hrs: DC50
[4] = OCI-LY10, 4 hrs, MSD, read-out: IRAK4 MSD degradation in OCI-LY10 at 4 hrs: Average external-Abs DC50
[5] = OCI-LY10, 24 hrs, MSD, read-out: IRAK4 MSD degradation in OCI-LY10 at 24 hrs: Average external-Abs DC50
[6] = OCI-LY10, 24 hrs, read-out: IRAK4 MSD degradation in OCI-LY10 at 24 hrs: DC50

Sequence of IRAK4 (Q9NWZ3 whole entry): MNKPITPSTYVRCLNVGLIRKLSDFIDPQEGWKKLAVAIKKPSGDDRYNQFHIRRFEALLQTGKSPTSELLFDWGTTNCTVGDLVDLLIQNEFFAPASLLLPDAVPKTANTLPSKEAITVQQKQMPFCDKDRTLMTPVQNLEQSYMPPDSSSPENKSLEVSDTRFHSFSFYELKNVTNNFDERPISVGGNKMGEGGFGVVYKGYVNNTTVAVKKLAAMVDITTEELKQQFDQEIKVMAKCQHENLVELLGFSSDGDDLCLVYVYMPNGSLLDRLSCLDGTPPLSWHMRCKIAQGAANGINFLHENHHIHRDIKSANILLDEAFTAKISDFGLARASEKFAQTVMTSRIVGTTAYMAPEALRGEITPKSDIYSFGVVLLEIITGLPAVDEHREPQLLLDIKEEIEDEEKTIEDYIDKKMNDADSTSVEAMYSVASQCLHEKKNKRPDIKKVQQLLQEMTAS

SMILES | DC50 [1, 3] | IC50 ([2]; Homo sapiens, OCI-Ly10, 96 h) | DC50 [1, 4] | DC50 [1, 5] | IC50 [2] | DC50 [1, 6]
O=C1CCC(N2C(=O)c3cccc(NCC4CCC5(CC4)CN(C[C@H]4CC[C@H](n6cc(NC(=O)c7cnn8ccc(N9C[C@H]%10C[C@@H]9CO%10)nc78)c(C(F)F)n6)CC4)C5)c3C2=O)C(=O)N1 (stereo partly drawn) [I-552] | 100 to 1000 nM | < 50 nM |  |  |  | 
CN(CCN(C)CC1CCC(n2cc(NC(=O)c3cnn4ccc(N5C[C@H]6C[C@@H]5CO6)nc34)c(C(F)F)n2)CC1)Cc1ccc(COc2cccc3c2C(=O)N(C2CCC(=O)NC2=O)C3=O)cc1 (stereo partly drawn) [I-335] |  | 500 to 1000 nM | 100 to 1000 nM |  |  | 
CN(CCCNc1cccc2c1C(=O)N(C1CCC(=O)NC1=O)C2=O)C1CCN(C[C@H]2CC[C@H](n3cc(NC(=O)c4cnn5ccc(N6CCOCC6)nc45)c(C(F)F)n3)CC2)CC1 (stereo partly drawn) [I-231] |  | < 50 nM | 10 to 100 nM |  |  | 
Cc1ncsc1-c1ccc(CNC(=O)[C@@H]2C[C@@H](O)CN2C(=O)[C@@H](NC(=O)COCCOCCOCC(=O)N2CCN([C@H]3CC[C@H](Nc4ncnc5cc(CC#N)ccc45)CC3)CC2)C(C)(C)C)cc1 [I-50] |  | > 1000 nM | > 1000 nM |  |  | 
NC(=O)c1nn([C@H]2CC[C@H](C(=O)NCCOCCOCCNc3cccc4c3C(=O)N(C3CCC(=O)NC3=O)C4=O)CC2)cc1NC(=O)c1coc(-c2ccnc(NCC(F)(F)F)c2)n1 (single isomer, unassigned) [I-13, N-(3-carbamoyl-1-((1r,4r)-4-((2-(2-(2-((2-(2,6-dioxopiperidin-3-yl)-1,3-dioxoisoindolin-4-yl)amino)ethoxy)ethoxy)ethyl)carbamoyl)cyclohexyl)-1H-pyrazol-4-yl)-2-(2-((2,2,2-trifluoroethyl)amino)pyridin-4-yl)oxazole-4-carboxamide] |  | > 1000 nM | > 1000 nM |  |  | 
O=C1CCC(N2Cc3c(OCc4ccc(CN5CCN(C[C@H]6CC[C@H](n7cc(NC(=O)c8coc(-c9ccnc(NCC%10CC%10)c9)n8)c(C(F)F)n7)CC6)CC5)cc4)cccc3C2=O)C(=O)N1 (stereo partly drawn) [I-379] |  | 100 to 500 nM | > 1000 nM | > 1000 nM |  | 
O=C1CCC(N2Cc3c(NCC4CCN(C[C@H]5CC[C@H](C6N=C(NC(=O)c7cnn8ccc(N9C[C@H]%10C[C@@H]9CO%10)nc78)C(C(F)F)=N6)CC5)CC4)cccc3C2=O)C(=O)N1 (stereo partly drawn) [I-380] |  | > 1000 nM | 100 to 1000 nM | 10 to 100 nM |  | 
Cc1nc2cccc(OCCCOC3CCN(C[C@H]4CC[C@H](n5cc(NC(=O)c6cnn7ccc(N8CCOCC8)nc67)c(C(F)F)n5)CC4)CC3)c2c(=O)n1C1CCC(=O)NC1=O (stereo partly drawn) [I-215] |  | > 1000 nM | > 1000 nM | > 1000 nM |  | 
CC[C@@H]1[C@H](F)C(=O)N[C@@H]1COc1ncc(C#C[C@H]2CC[C@H](CN3CCC(OCCNc4cccc5c4C(=O)N(C4CCC(=O)NC4=O)C5=O)CC3)CC2)c2cc(C(N)=O)c(OC)cc12 (stereo partly drawn) [I-386] |  | < 50 nM | 100 to 1000 nM | 10 to 100 nM |  | 
Cn1c(=O)n(C2CCC(=O)NC2=O)c2ccc(CCCOCCOCC(F)CNC(=O)c3cnc(Nc4ccc5cnccc5n4)cc3NC3CC3)cc21 (stereo not drawn) [I-138] |  | > 1000 nM | > 1000 nM | > 1000 nM |  | 
O=C1CCC(n2c3cccc(CCCOC4CCN(C[C@H]5CC[C@H](n6cc(NC(=O)c7cnn8ccc(N9CCC(O)CC9)nc78)c(C(F)F)n6)CC5)CC4)c3c3cccnc32)C(=O)N1 (stereo partly drawn) [I-151] |  | > 1000 nM | 10 to 100 nM |  |  | 
CN(CCCN(C)C[C@H]1CC[C@H](n2cc(NC(=O)c3coc(-c4ccnc(NCC5CC5)c4)n3)c(C(F)F)n2)CC1)Cc1cccc2c1n(C)c(=O)n2C1CCC(=O)NC1=O (stereo partly drawn) [I-242] |  | 500 to 1000 nM | < 10 nM |  |  | 
CN(C[C@H]1CC[C@H](n2cc(NC(=O)c3cnn4ccc(NCC5CC5)nc34)c(C(C)(C)O)n2)CC1)C1CCN(Cc2cccc3c2n(C)c(=O)n3C2CCC(=O)NC2=O)CC1 (stereo partly drawn) [I-268] |  | > 1000 nM | 100 to 1000 nM |  |  | 
Cn1c(=O)n(C2CCC(=O)NC2=O)c2ccc(CN3CCC(CC(=O)N4CCC(n5cc(NC(=O)c6coc(-c7ccnc(NCC8CC8)c7)n6)c(C(F)F)n5)CC4)CC3)cc21 (stereo not drawn) [I-148] |  | 100 to 500 nM | 100 to 1000 nM |  |  | 
Cn1c(=O)n(C2CCC(=O)NC2=O)c2cccc(CCCOCCCN3CCC(n4cc(NC(=O)c5cnn6ccc(N7CCNCC7)nc56)c(C(F)F)n4)CC3)c21 (stereo not drawn) [I-180] |  | > 1000 nM | 10 to 100 nM |  |  | 
CN(C[C@@H]1CN(CCCCc2cccc3c2C(=O)N(C2CCC(=O)NC2=O)C3=O)CCO1)C[C@H]1CC[C@H](n2cc(NC(=O)c3coc(-c4ccnc(NCC5CC5)c4)n3)c(C(F)F)n2)CC1 (stereo partly drawn) [I-343] |  |  | 10 to 100 nM |  | < 50 nM | 
CN(CCc1ccc(CCNc2cccc3c2C(=O)N(C2CCC(=O)NC2=O)C3=O)cc1)C[C@H]1CC[C@H](n2cc(NC(=O)c3cnn4ccc(N5C[C@H]6C[C@@H]5CO6)nc34)c(C(F)F)n2)CC1 (stereo partly drawn) [I-336] |  | 50 to 100 nM | 100 to 1000 nM | 10 to 100 nM |  | 

SMILES | DC50 [1, 3] | IC50 ([2]; Homo sapiens, OCI-Ly10, 96 h) | DC50 [1, 4] | DC50 [1, 5] | IC50 [2] | DC50 [1, 6]
CN[C@@H](C)C(=O)N[C@H](C(=O)N1Cc2cc(OCCOCCOCCNC[C@H]3CC[C@H](n4cc(NC(=O)c5coc(-c6ccnc(NCC7CC7)c6)n5)c(C(F)F)n4)CC3)ccc2C[C@H]1C(=O)N[C@@H]1CCCc2ccccc21)C(C)(C)C [I-161] |  | > 1000 nM | > 1000 nM | > 1000 nM |  | 
CN(Cc1ccc(-n2cc(NC(=O)c3cnn4ccc(N5CCOCC5)nc34)c(C(F)F)n2)cc1)[C@H]1CC[C@H](Nc2cccc3c2C(=O)N(C2CCC(=O)NC2=O)C3=O)CC1 (stereo partly drawn) [I-476] | 10 to 100 nM | > 1000 nM |  |  |  | 10 to 100 nM
CN(C[C@H]1CC[C@H](n2cc(NC(=O)c3cnn4ccc(N5CCOCC5)nc34)c(C(F)F)n2)CC1)[C@H]1CC[C@H](Nc2cccc3c2C(=O)N(C2CCC(=O)NC2=O)C3=O)CC1 (stereo partly drawn) [I-355] |  | 100 to 500 nM | 10 to 100 nM | < 10 nM |  | 
Cn1c(=O)n(C2CCC(=O)NC2=O)c2ccc(CN3CCC(CCN4CCC(n5cc(NC(=O)c6coc(-c7ccnc(NCC8CC8)c7)n6)c(C(F)F)n5)CC4)CC3)cc21 (stereo not drawn) [I-181] |  | 100 to 500 nM | 100 to 1000 nM |  |  | 
O=C1CCC(N2C(=O)c3cccc(N[C@H]4C[C@H](OC5CCN(C[C@H]6CC[C@H](n7cc(NC(=O)c8cnn9ccc(N%10C[C@H]%11C[C@@H]%10CO%11)nc89)c(C(F)F)n7)CC6)CC5)C4)c3C2=O)C(=O)N1 (stereo partly drawn) [I-505] | 10 to 100 nM | > 1000 nM |  |  |  | < 10 nM
Cn1c(=O)n(C2CCC(=O)NC2=O)c2cccc(CN3CCC(N(C)[C@H]4CC[C@H](Oc5ncnc6ccc(C#N)cc56)CC4)CC3)c21 (stereo partly drawn) [I-270] |  | > 1000 nM | > 1000 nM | > 1000 nM |  | 
CN(C[C@H]1CC[C@H](n2cc(NC(=O)c3cnn4ccc(N5C[C@H]6C[C@@H]5CO6)nc34)c(C(F)F)n2)CC1)[C@H]1CC[C@H](Nc2cccc3c2C(=O)N(C2CCC(=O)NC2=O)C3=O)CC1 (stereo partly drawn) [I-463] | 10 to 100 nM | 100 to 500 nM |  |  |  | < 10 nM
CN(CCCOCCCNc1cccc2c1C(=O)N(C1CCC(=O)NC1=O)C2=O)C[C@H]1CC[C@H](n2cc(NC(=O)c3coc(-c4ccnc(N5CCOCC5)c4)n3)c(C(F)F)n2)CC1 (stereo partly drawn) [I-397] |  | 50 to 100 nM | 100 to 1000 nM | 100 to 1000 nM |  | 
CN1C(=O)C(C2CCC(=O)NC2=O)c2cccc(CCCOC3CCN(C[C@H]4CC[C@H](n5cc(NC(=O)c6cnn7ccc(NCCC(C)(C)O)nc67)c(C(F)F)n5)CC4)CC3)c21 (stereo partly drawn) [I-288] |  | > 1000 nM | < 10 nM |  |  | 
COc1cc(C(=O)N2CCC(CCCN(C)C[C@H]3CC[C@H](n4cc(NC(=O)c5coc(-c6ccnc(NCC7CC7)c6)n5)c(C(F)F)n4)CC3)CC2)ccc1NC(=O)[C@@H]1N[C@@H](CC(C)(C)C)[C@](C#N)(c2ccc(Cl)cc2F)[C@H]1c1cccc(Cl)c1F [I-141] |  | > 1000 nM | > 1000 nM | > 1000 nM |  | 
CN(CCN1CCO[C@@H](CCNc2cccc3c2C(=O)N(C2CCC(=O)NC2=O)C3=O)C1)C[C@H]1CC[C@H](n2cc(NC(=O)c3coc(-c4ccnc(NCC5CC5)c4)n3)c(C(F)F)n2)CC1 (stereo partly drawn) [I-339] |  | 50 to 100 nM | 10 to 100 nM | 10 to 100 nM |  | 
CN(C[C@H]1CC[C@H](C2N=C(NC(=O)c3cnn4ccc(N5CCOCC5)nc34)C(C(F)F)=N2)CC1)C1CCC(CNc2cccc3c2C(=O)N(C2CCC(=O)NC2=O)C3=O)CC1 (stereo partly drawn) [I-459] | 100 to 1000 nM | < 50 nM |  |  |  | 10 to 100 nM
Cc1ncsc1-c1ccc(CNC(=O)[C@@H]2C[C@@H](O)CN2C(=O)[C@@H](NC(=O)COCCOCCOCCOCC(=O)N2CCN(C3CCC(Nc4ncnc5cc(CC#N)ccc45)CC3)CC2)C(C)(C)C)cc1 (stereo partly drawn) [I-49] |  | > 1000 nM | > 1000 nM |  |  | 
Cn1c(=O)n(C2CCC(=O)NC2=O)c2cccc(CCCOCCCN3CCN([C@H]4CC[C@H](Nc5ncnc6ccc(CC#N)cc56)CC4)CC3)c21 (stereo partly drawn) [I-269] |  | > 1000 nM | > 1000 nM | > 1000 nM |  | 
O=C1CCC(N2C(=O)c3cccc(NCCCOC[C@H]4CN(C[C@H]5CC[C@H](n6cc(NC(=O)c7cnn8ccc(N9CCOCC9)nc78)c(C(F)F)n6)CC5)CCO4)c3C2=O)C(=O)N1 (stereo partly drawn) [I-332] |  | 100 to 500 nM | 100 to 1000 nM | 10 to 100 nM |  | 
O=C1CCC(N2C(=O)c3cccc(NCC4CC5(C4)CN(C[C@H]4CC[C@H](n6cc(NC(=O)c7cnn8ccc(N9C[C@H]%10C[C@@H]9CO%10)nc78)c(C(F)F)n6)CC4)C5)c3C2=O)C(=O)N1 (stereo partly drawn) [I-461] | 100 to 1000 nM | < 50 nM |  |  |  | 
O=C1CCC(N2Cc3c(OC4CC5(CCN(C[C@H]6CC[C@H](n7cc(NC(=O)c8cnn9ccc(N%10C[C@H]%11C[C@@H]%10CO%11)nc89)c(C(F)F)n7)CC6)CC5)C4)cccc3C2=O)C(=O)N1 (stereo partly drawn) [I-328] |  | < 50 nM | 10 to 100 nM | < 10 nM |  | 
